Experimental data taken from the CombiSolv-Exp solvation set (Vermeire and Green 2021).

Test: solvent given as SMILES

CC(=O)Nc1ccc(O)cc1
Settings | solvation free energy, 298 K [kcal/mol]
in C1CCOC1 | -16.1
in C1COCCO1 | -14.9
in CC(C)(C)O | -15.8
in CC(C)CO | -15.6
in CC(C)O | -16
in CC(C)OCCO | -16.1
in CC(O)COC(C)(C)C | -15.5
in CCC(C)O | -15.8
in CCCCCCCO | -15.3
in CCCCCCO | -15.5
in CCCCCO | -15.6
in CCCCO | -15.8
in CCCCOC(C)=O | -14.2
in CCCCOCCCC | -12
in CCCCOCCO | -15.8
in CCCO | -16.1
in CCCOCCO | -16.1
in CCOCCO | -16.4
in CN(C)C=O | -17.3
in CO | -16.6
in COC(C)(C)C | -13.4
in COC(C)=O | -14.8
in COC(C)CCO | -16
in ClCCl | -12.8
in Fc1ccccc1 | -12.1
in O | -14.9

CC=CCC
Settings | solvation free energy, 298 K [kcal/mol]
in CN(C)C=O | -2.46

CSc1nc(N=[N+]=[N-])nc(NC(C)C)n1
Settings | solvation free energy, 298 K [kcal/mol]
in O | -8.19

O=[N+]([O-])c1cc(Cl)ccc1Cl
Settings | solvation free energy, 298 K [kcal/mol]
in C1CCCCC1 | -8.11
in CC1CCCCC1 | -8.06
in CC#N | -9.34
in CC(C)CC(C)(C)C | -7.63
in CC(C)CCO | -8.13
in CC(C)CO | -8.01
in CC(C)O | -8.07
in CCC(C)O | -7.92
in CCCCCC | -7.77
in CCCCCCC | -7.77
in CCCCCCCC | -7.75
in CCCCCCCCCC | -7.74
in CCCCCCCCCCCC | -7.71
in CCCCCCCCCO | -8.13
in CCCCCCCCO | -8.18
in CCCCCCCO | -8.19
in CCCCCCO | -8.22
in CCCCCO | -8.23
in CCCCO | -8.23
in CCCO | -8.23
in CCO | -8.32
in COC(C)=O | -9.35
in Cc1cccc(C)c1 | -9.25
in Cc1ccccc1 | -9.28

CCCC=CC=O
Settings | solvation free energy, 298 K [kcal/mol]
in O | -3.68

CCCCCCCCCCCCCCCCCCO
Settings | solvation free energy, 298 K [kcal/mol]
in CC(C)O | -14.9
in CCC(C)=O | -13.8
in CCCCCCCCC=CCCCCCCCC(=O)OCC(COC(=O)CCCCCCCC=CCCCCCCCC)OC(=O)CCCCCCCC=CCCCCCCCC | -12.4
in CCCCCCCCCCO | -14.9
in CCCCCCCCO | -14.9
in CCCCCCO | -14.9
in CCCCOCCCC | -14.5
in CCOCC | -15
in O | -2.43

O=C1c2ccccc2C(=O)c2c(Cl)cccc21
Settings | solvation free energy, 298 K [kcal/mol]
in C1CCOC1 | -15
in CC(=O)N(C)C | -14.9
in CC(C)(C)O | -12.6
in CC(C)CC(C)(C)C | -12
in CC(C)CC(C)O | -12.7
in CC(C)CCO | -12.7
in CC(C)CO | -12.6
in CC(C)O | -12.6
in CCC(C)O | -12.7
in CCCC(C)CO | -12.8
in CCCC(C)O | -12.8
in CCCCCC | -12.2
in CCCCCCC | -12.3
in CCCCCCCC | -12.3
in CCCCCCCCCC | -12.4
in CCCCCCCCCCO | -13.1
in CCCCCCCCO | -13.1
in CCCCCCCO | -13.1
in CCCCCCO | -13.1
in CCCCCO | -12.9
in CCCCCOC(C)=O | -13.9
in CCCCO | -12.8
in CCCCOC(C)=O | -14
in CCCCOCCCC | -13.1
in CCCO | -12.8
in CCCOC(C)=O | -14.1
in CCOC(C)=O | -14.2
in CCOCC | -13.4
in CO | -12.7
in COC(C)(C)C | -13.4
in COC(C)=O | -14.3
in Fc1ccccc1 | -14.6
in O | -8.23

[2H]O[2H]
Settings | solvation free energy, 298 K [kcal/mol]
in C1CCCCC1 | -0.54
in CCO | -5.24
in ClC(Cl)(Cl)Cl | -1.14
in S=C=S | -0.75

CC(=O)CCCC(C)C
Settings | solvation free energy, 298 K [kcal/mol]
in NC=O | -4.76
in O | -3

CCCC(=O)O
Settings | solvation free energy, 298 K [kcal/mol]
in C=CCCCCCCC=C | -4.39
in C=CCCCCCCCCCCCCCC | -3.94
in O | -6.34

COC(C)(OC)OC
Settings | solvation free energy, 298 K [kcal/mol]
in O | -4.42

c1cc2c3c(cccc3c1)CC2
Settings | solvation free energy, 298 K [kcal/mol]
in C1CCOC1 | -9.86
in C1COCCO1 | -9.66
in CC(C)(C)O | -8.39
in CC(C)CC(C)(C)C | -8.67
in CC(C)CC(C)O | -8.46
in CC(C)CCCC(C)CCO | -8.69
in CC(C)CCO | -8.43
in CC(C)CO | -8.4
in CC(C)O | -8.38
in CC(C)OC(C)C | -9.11
in CCC(C)(C)O | -8.61
in CCC(C)O | -8.46
in CCCC(C)CO | -8.55
in CCCC(C)O | -8.52
in CCCCC(CC)CO | -8.66
in CCCCCC | -8.86
in CCCCCCC | -8.89
in CCCCCCCC | -8.9
in CCCCCCCCC=CCCCCCCCC(=O)OCC(COC(=O)CCCCCCCC=CCCCCCCCC)OC(=O)CCCCCCCC=CCCCCCCCC | -9.22
in CCCCCCCCCC | -8.88
in CCCCCCCCCCO | -8.8
in CCCCCCCCO | -8.61
in CCCCCCCO | -8.75
in CCCCCCO | -8.72
in CCCCCO | -8.68
in CCCCO | -8.6
in CCCCOC(C)=O | -9.43
in CCCCOCCCC | -9.18
in CCCO | -8.53
in CCO | -8.4
in CCOC(C)=O | -9.44
in CCOCC | -9.37
in CNC=O | -8.5
in CO | -8.21
in COC(C)(C)C | -9.25
in COC(C)=O | -9.32
in Cc1ccc(C)cc1 | -9.57
in Cc1ccccc1C | -9.78
in ClC(Cl)(Cl)Cl | -9.63
in ClC(Cl)Cl | -9.84
in ClCCCl | -9.78
in O | -3.18

c1ccsc1
Settings | solvation free energy, 298 K [kcal/mol]
in CC(C)O | -3.75
in CCCCCCC | -4.09
in CCCO | -3.71
in CN1CCCC1=O | -4.68
in O | -1.39
in O=CN1CCOCC1 | -4.39
in c1ccccc1 | -4.65

CCCCCI
Settings | solvation free energy, 298 K [kcal/mol]
in O | -0.14

CCCCCCCCCCCCCCCCCCCCC
Settings | solvation free energy, 298 K [kcal/mol]
in CC(=O)N(C)C | -14.3
in CC(C)(C)O | -12.9
in CN(C)C=O | -14.4
in O | 4.71

O=[N+]([O-])c1cccc(O)c1
Settings | solvation free energy, 298 K [kcal/mol]
in CCCCCC | -7.79
in CCCCCCC | -7.72
in CCCCCCCC | -7.83
in CCCCCCCCCC | -7.74
in O | -9.63

CCCCCCCCCOC(=O)c1ccccc1C(=O)OCCCC
Settings | solvation free energy, 298 K [kcal/mol]
in O | -6.67

CCOP(=S)(OCC)SCSP(=S)(OCC)OCC
Settings | solvation free energy, 298 K [kcal/mol]
in O | -6.1

CC(=O)Cc1ccccc1
Settings | solvation free energy, 298 K [kcal/mol]
in O | -5.62

CC(C)CO
Settings | solvation free energy, 298 K [kcal/mol]
in Brc1ccccc1 | -4.23
in C1CCCCC1 | -3.98
in CC(=O)N(C)C | -6.04
in CC(C)(C)O | -5.95
in CC(C)CC(C)(C)C | -3.55
in CC(C)CCCC(C)CCCC(C)CCCCC(C)CCCC(C)CCCC(C)C | -3.1
in CCC(C)=O | -5.43
in CCC(C)O | -5.95
in CCCCCC | -3.58
in CCCCCCC | -3.51
in CCCCCCCC | -3.33
in CCCCCCCCCCCCCCCC | -3.25
in CCCCCCCCCCO | -5.43
in CCCCCCCCO | -5.36
in CCCCCO | -5.73
in CCCCCl | -4.41
in CCCCN(C=O)CCCC | -5.76
in CCCCO | -5.74
in CCCCOC(C)=O | -4.84
in CCCOCCC | -4.78
in CCOC(=O)c1ccccc1C(=O)OCC | -4.88
in CCOP(=O)(OCC)OCC | -5.79
in CN1CCCC1=O | -6.03
in CN1CCN(C)C1=O | -5.9
in CNC(C)=O | -5.91
in CO | -6.18
in Cc1ccc(C)cc1 | -4.25
in Cc1cccc(C)c1 | -4.1
in Clc1ccccc1 | -4.26
in O | -4.52
in O=CN1CCOCC1 | -5.3
in OCCOCCO | -5.51
in [2H]O[2H] | -4.59

Cc1[nH]n(-c2ccccc2)c(=O)c1C(=O)c1ccccc1
Settings | solvation free energy, 298 K [kcal/mol]
in O | -11.6

CNC=O
Settings | solvation free energy, 298 K [kcal/mol]
in C1CCCCC1 | -3.86
in CC(C)=O | -7.35
in CCCCCCC | -3.68
in O | -8.87

Fc1ccccc1
Settings | solvation free energy, 298 K [kcal/mol]
in C1CCOC1 | -4.94
in C1COCCO1 | -4.69
in CC(O)CO | -3.53
in CCCCCC | -4.15
in CCCCCCC | -4.13
in CCCCCCCCCC | -3.48
in CCCCCCCCCCCCCCCC | -3.81
in CN(C)C=O | -4.75
in COCCO | -4.4
in N#Cc1ccccc1 | -4.53
in NC=O | -2.8
in O | -0.8
in OCCO | -2.91

CC=O
Settings | solvation free energy, 298 K [kcal/mol]
in CC(=O)N(C)C | -3.22
in CC(C)CCCC(C)CCCC(C)CCCCC(C)CCCC(C)CCCC(C)C | -2.26
in CCCCCCCCCCCCCCCC | -1.51
in CCCCCCCCO | -3.65
in CCCCN(C=O)CCCC | -2.78
in CCN1CCCC1=O | -3.05
in CCN(CC)C(C)=O | -3.06
in CCNC(C)=O | -2.73
in CN1CCCCC1=O | -3.04
in CNC(C)=O | -2.85
in CO | -4.83
in O | -3.44

[2H][2H]
Settings | solvation free energy, 298 K [kcal/mol]
in Brc1ccccc1 | 1.76
in C1CCOC1 | 1.47
in C1COCCO1 | 1.72
in CC(C)(C)O | 1.46
in CC(C)CC(C)(C)C | 1.27
in CC(C)CO | 1.53
in CCC(C)O | 1.54
in CCCCCCC | 1.27
in CCCCCCCC | 1.34
in CCCCO | 1.53
in Clc1ccccc1 | 1.65
in O | 2.36
in O=C1CCCC1 | 1.7
in O=C1CCCCC1 | 1.73

CCCI
Settings | solvation free energy, 298 K [kcal/mol]
in C=CCCCCCCCCCCCCCC | -4.16
in ClC(Cl)(Cl)Cl | -4.97
in O | -0.56

CC(C)[N+](=O)[O-]
Settings | solvation free energy, 298 K [kcal/mol]
in CCCCCCC | -3.81
in ClC(Cl)(Cl)Cl | -4.57
in O | -3.13
in c1ccccc1 | -5.07

CCOC(OCC)Oc1ccccc1
Settings | solvation free energy, 298 K [kcal/mol]
in O | -5.23
